Experimental data as given in patent US20050175580A1, “Compositions and methods for enhancing cytokine activity and treating hypotension associated with the administration of cytokines” (priority 2001, published 2005).
Entries after “also recorded” stand apart in the source; their conditions may differ.

How the values were obtained:
RD-995 tumor = test: Rosenberg tumor model, RD-995 pulmonary metastases; assay type: in vivo, mice
Description: RD-995 is a skin fibrosarcoma that was induced by chronic ultraviolet light exposure of a C3H/HeN mouse (Samlowski et al., 1995). This tumor grows in non-immunosuppressed mice, and is thus termed a “progressor” tumor.
Once stabilized, mice were injected with 10^6 RD-995 tumor cells intravenously. […] On day 14, mice were sacrificed by anesthetic overdose. After anterior thoracotomy, India ink solution (30 ml India ink, 4 drops ammonium hydroxide in 170 ml distilled water) was instilled into the trachea of each mouse via 18 ga. needle, until the lungs were completely expanded. Lungs were then excised and bleached in 5-10 ml Fekete's solution (100 ml 70% ethanol, 10 ml formaldehyde, 5 ml glacial acetic acid) for at least 24 h prior to enumeration of metastases using a magnifying lens.

Meth A tumor [1] = test: NO-mediated apoptosis of Meth A tumor (not shown); assay type: cell-based, mouse
NO = test: Inhibition of NO (not shown)
murine (mouse) LAK cell = test: LAK cell induction in vitro, murine splenocytes activated with IL-2, cytotoxicity against RD-995 tumor, trypan blue viability; assay type: cell-based
Description: Non-M40403 exposed cultures served as a positive control. After 72 h, LAK cells were harvested and cell viability evaluated. LAK cells cytotoxicity was tested against RD-995 tumor in triplicate samples at varying effector to target cell ratios (expressed as mean±SD) using previously published methods (Yim et al., 1994; Samlowski et al., 1998).
Cell viability was assessed by trypan blue exclusion. Viability remained at 100% of control at up to 10 μM M40403 (not shown).

mice [2] = test: IL-2 dose escalation study with or without M40403 (deaths, blood pressure); assay type: in vivo
Description: Analysis was performed using Chart 3.6.1 software (AD instruments).

mice [3] = test: IL-2 induced hypotension in mice, systolic blood pressure via tail cuff; assay type: in vivo
Description: Parallel groups of untreated mice or mice receiving M40403 alone (at the highest dose tested of 3 mg/kg) served as a control. […] Analysis was performed using Chart 3.6.1 software (AD instruments).
Preliminary experiments were also performed with M40401.

Meth A tumor [4] = test: Meth A fibrosarcoma tumor model (malignant ascites), survival; assay type: in vivo, BALB/c mice
Text: Meth A was induced in a BALB/c mouse by methylcholanthrene treatment (obtained from Lloyd Old, MSKCC). This very aggressive fibrosarcoma is one of the rare tumors resistant to LAK cell mediated cytolysis in vitro. […] See Yim et al., J. Immunol. 155: 4382-4390 (1995).
Survival of the mice was used as the major endpoint to assess therapeutic responses.

LAK cells = test: LAK cell induction in vivo, 51Cr release of lymph node and spleen cells against RD-995 tumor; parameters: species or system mice
Description: Parallel groups of untreated mice or mice receiving M40403 alone (at the highest dose tested of 3 mg/kg) served as a control. […] A single cell suspension was prepared from the lymph nodes and spleen from each animal, and serial dilutions made (starting from 10^6). Cytolytic activity of lymph node and spleen cells was tested against ^51Cr-radiolabeled RD-995 tumor (NK resistant, LAK sensitive, 10^4 cells) in a standard 4h ^51Cr release assay at a varying effector to target cell ratio (in triplicate). […] Statistical comparison of specific cytotoxicity (e.g. at 100:1 effector to target ratio) and lytic units per organ will be performed using Student's t-test, using Bonferroni's correction for multiple analyses.

[5] = M40403 at highest dose, 3 mg/kg b.i.d. for 5 days
[6] = M40403 3 mg/kg i.p. b.i.d. in conjunction with IL-2 180,000 IU for 5 days

## [Cl-].[Cl-].[Mn+2].c1cc2nc(c1)CN[C@@H]1CCCC[C@H]1NCCN[C@@H]1CCCC[C@H]1NC2 [M40403]
RD-995 tumor; M40403 3 mg/kg concurrently with IL-2
  effect on the anti-tumor effects of IL-2: did not affect the anti-tumor effects of IL-2
RD-995 tumor; single agent, IL-2 180,000 IU i.p. every 12 h for 5 days or M40403 3 mg/kg, day 14
  number of tumor nodules in lungs: completely eliminated
Meth A tumor [1]
  effect on NO-mediated apoptosis of Meth A tumor: does not affect
NO
  inhibition of NO: does not inhibit
Murine (mouse) LAK cell; M40403 0-10 μM during IL-2 activation (6000 IU/ml rhIL-2), 72 h
  effect on murine LAK cell activation by IL-2: did not adversely affect; also recorded: do not adversely affect
Murine (mouse) LAK cell; increasing concentrations of M40403 during IL-2 activation
  dose dependence of LAK cell activation: dose-dependent increase
Murine (mouse) LAK cell; up to 10 μM M40403, trypan blue exclusion
  cell viability: 100 % of control
Mice [2]; M40403 3 mg/kg i.p. b.i.d. in conjunction with IL-2
  blood pressure under escalating doses of IL-2: allowed BP to be maintained
Mice [2]; M40403 3 mg/kg i.p. b.i.d. in conjunction with IL-2, all doses of IL-2 (180,000-400,000 IU)
  deaths: 0 deaths of 6 mice
Mice [3]; [5]
  effect on systolic blood pressure: no effect on systolic blood pressure
  signs of toxicity: no apparent signs of toxicity
Mice [3]; SOD mimetic i.p. b.i.d. in conjunction with IL-2 180,000 IU for 5 days
  reversal / attenuation of IL-2 induced hypotension: attenuated in a dose-dependent manner
Mice [3]; b.i.d. with IL-2 for 5 days
  dose at which maximal / full reversal of IL-2 induced hypotension was obtained: 3 mg/kg
Mice [3]; mice, n=6 per group, IL-2 180,000 IU i.p. twice daily for 5 days, M40403 alone at 3 mg/kg, tail cuff two hours after last dose of IL-2
  Mean Systolic BP: 111.21
Mice [3]; mice, n=6 per group, IL-2 180,000 IU i.p. twice daily for 5 days, M40403 alone at 3 mg/kg, two hours after last dose of IL-2
  systolic BP, mean: 111±45 mmHg
Meth A tumor [4]; IL-2 180,000 IU s.c. with M40403 3 mg/kg s.c.
  IL-2 induced anti-tumor responses, combination of IL-2 with M40403: improves IL-2 induced anti-tumor responses
Meth A tumor [4]; M40403 itself, 3 mg/kg s.c.
  effect on survival: did not affect survival
LAK cells; [6]
  IL-2 induced LAK cells activation in vivo, lymph nodes: significantly potentiated
  IL-2 induced LAK cells activation in vivo, spleen: significantly potentiated
LAK cells; M40403 by itself, 3 mg/kg
  LAK cell induction in vivo: did not increase
